Test results published in ChEMBL document CHEMBL1201862, “PubChem BioAssay data set” (2004).
Calls of active or inactive are those of the source.

Legend:
[1] = biological target: Intestinal-type alkaline phosphatase (Homo sapiens, UniProt P09923); assay: inhibition of human intestinal alkaline phosphatase – biochemical, dose response (AID 488876); type: functional
[2] = biological target: Intestinal-type alkaline phosphatase (Mus musculus, UniProt P24822); assay: PubChem AID 488785; type: functional
[3] = biological target: T1, Alkaline phosphatase, tissue-nonspecific isozyme (Homo sapiens, UniProt P05186); assay: TNAP enzyme inhibition by screening hits, dose response, selectivity assay for mouse IAP inhibitor project, biochemical, human TNAP, uHTS hits (AID 488906); type: functional
T1 sequence (P05186 whole entry): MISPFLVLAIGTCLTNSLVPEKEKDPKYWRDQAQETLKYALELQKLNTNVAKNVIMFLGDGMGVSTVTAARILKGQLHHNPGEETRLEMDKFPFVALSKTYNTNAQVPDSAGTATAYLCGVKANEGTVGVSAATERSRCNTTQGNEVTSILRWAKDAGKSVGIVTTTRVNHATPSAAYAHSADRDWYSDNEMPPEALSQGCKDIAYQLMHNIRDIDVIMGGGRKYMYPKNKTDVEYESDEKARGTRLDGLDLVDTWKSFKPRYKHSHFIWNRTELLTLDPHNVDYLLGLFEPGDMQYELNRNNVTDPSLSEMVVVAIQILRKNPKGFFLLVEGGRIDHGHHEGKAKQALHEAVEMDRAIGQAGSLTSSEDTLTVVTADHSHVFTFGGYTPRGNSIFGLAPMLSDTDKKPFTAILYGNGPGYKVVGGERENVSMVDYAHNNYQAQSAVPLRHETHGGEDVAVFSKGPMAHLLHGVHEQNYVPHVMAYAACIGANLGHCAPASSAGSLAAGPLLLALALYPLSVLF

[4] = cytotoxicity toward MDA-MB-231 breast cancer cells – cell-based, CellTiter-Glo luminescence, cherry-pick, cytotoxicity control for RAD54 inhibitor project, dose response (AID 651692); type: functional
[5] = alpha-synuclein stem-loop luciferase translation blockers – H4 neuroglioma cells, luminescence, confirmation (AID 1988); type: functional, cell-based
[6] = biological target: 72 kDa type IV collagenase (Homo sapiens, UniProt P08253); assay: Dose Response validation of uHTS RPN11 inhibitor hits using a MMP-2 Fluorescence assay.; type: functional
[7] = biological target: 26S proteasome non-ATPase regulatory subunit 14 (Homo sapiens, UniProt O00487); assay: inhibition of proteasome subunit RPN11 – biochemical, fluorescence polarization, uHTS hits, confirmation (AID 602368); type: functional
BJ [8] = assay: cells; type: functional, cell-based; settings: Homo sapiens
[9] = biological target: T2, Delta-type opioid receptor (Homo sapiens, UniProt P41143); assay: HTS Image-Based Screen for Antagonists of the DOR Receptor. [Related pubchem assays (depositor defined):AID1777, AID1785, AID1786, AID2133]; type: functional
[10] = luciferase reporter signal suppression in cells – H4 neuroglioma cells, luminescence, dose response (AID 1990); type: functional, cell-based
[11] = Luminescence Cell-Based Dose Response HTS to Identify Inhibitors of 5'UTR Stem-Loop Driven Prion Protein mRNA Translation in H4 Neuroglioblastoma Cells. [Related pubchem assays: 1827 (Project Summary), 1813 (Primary HTS)]; type: functional
cells = type: functional
[12] = THP-1 cell cytotoxicity, dose response, cytotoxicity control for non-replicating M. tuberculosis project (AID 489025); type: functional
[13] = DRD fibroblast viability loss – cell-based, non-viral oncogenic, luminescence, dose response (AID 1934); type: functional; settings: Homo sapiens
[14] = biological target: DNA repair and recombination protein RAD54-like (Homo sapiens, UniProt Q92698); assay: RAD54 Holliday junction migration blockers – biochemical, fluorescence, cherry-picked samples, dose series, confirmation (AID 651657); type: functional
[15] = biological target: T3, Kappa-type opioid receptor (Homo sapiens, UniProt P41145); type: functional
Prothrombin = Prothrombin (Bos taurus, UniProt P00735); assay: thrombin protease inhibitors – biochemical, fluorescence polarization, uHTS hits, dose response (AID 602369); type: functional
BJ [16] = assay: BJ-TERT-LT-ST fibroblast viability loss – cell-based, RAS-independent, luminescence, dose response (AID 1935); type: functional; settings: Homo sapiens;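 also: BJ fibroblasts immortalized with TERT plus LT and ST oncogenes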
Mu-type opioid receptor = Mu-type opioid receptor (Homo sapiens, UniProt P35372); assay: HTS Image-Based Screen for Agonists of the MOR Receptor. [Related pubchem assays (depositor defined):AID1777, AID1785, AID1786, AID2133]; type: functional;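 also: imaging of beta-arrestin GFP recruitment into spots after receptor activation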
INS1 = assay: INS-1E survival protection against cytokine death – cell-based, luminescence, retest, dose response (AID 449756); type: functional; settings: Rattus norvegicus;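 also: cell death triggered by IL-1 beta plus TNF-alpha plus IFN-gamma mixture; protective hits raise ATP signal compared with cytokine alone wells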
[17] = biological target: T3, Kappa-type opioid receptor; type: functional; remark: listed apart in the source
BJ [18] = assay: BJ-TERT fibroblast viability loss – cell-based, RAS-independent, luminescence, dose response (AID 1933); type: functional; settings: Homo sapiens
[19] = biological target: T2, Delta-type opioid receptor; assay: HTS Image-Based Screen for Agonists of the DOR Receptor. [Related pubchem assays (depositor defined):AID1777, AID1786, AID2133]; type: functional
[20] = HepG2 cell cytotoxicity, dose response, cytotoxicity control for non-replicating M. tuberculosis project (AID 489018); type: functional; settings: Mycobacterium tuberculosis
[21] = Vero E6 cell cytotoxicity, dose response, cytotoxicity control for non-replicating M. tuberculosis project, secondary assay (AID 492998); type: functional, VeroE6; settings: Vero C1008
[22] = biological target: T4, Tyrosine-protein phosphatase non-receptor type 22 (Homo sapiens, UniProt Q9Y2R2); type: functional
T4 sequence (Q9Y2R2 whole entry): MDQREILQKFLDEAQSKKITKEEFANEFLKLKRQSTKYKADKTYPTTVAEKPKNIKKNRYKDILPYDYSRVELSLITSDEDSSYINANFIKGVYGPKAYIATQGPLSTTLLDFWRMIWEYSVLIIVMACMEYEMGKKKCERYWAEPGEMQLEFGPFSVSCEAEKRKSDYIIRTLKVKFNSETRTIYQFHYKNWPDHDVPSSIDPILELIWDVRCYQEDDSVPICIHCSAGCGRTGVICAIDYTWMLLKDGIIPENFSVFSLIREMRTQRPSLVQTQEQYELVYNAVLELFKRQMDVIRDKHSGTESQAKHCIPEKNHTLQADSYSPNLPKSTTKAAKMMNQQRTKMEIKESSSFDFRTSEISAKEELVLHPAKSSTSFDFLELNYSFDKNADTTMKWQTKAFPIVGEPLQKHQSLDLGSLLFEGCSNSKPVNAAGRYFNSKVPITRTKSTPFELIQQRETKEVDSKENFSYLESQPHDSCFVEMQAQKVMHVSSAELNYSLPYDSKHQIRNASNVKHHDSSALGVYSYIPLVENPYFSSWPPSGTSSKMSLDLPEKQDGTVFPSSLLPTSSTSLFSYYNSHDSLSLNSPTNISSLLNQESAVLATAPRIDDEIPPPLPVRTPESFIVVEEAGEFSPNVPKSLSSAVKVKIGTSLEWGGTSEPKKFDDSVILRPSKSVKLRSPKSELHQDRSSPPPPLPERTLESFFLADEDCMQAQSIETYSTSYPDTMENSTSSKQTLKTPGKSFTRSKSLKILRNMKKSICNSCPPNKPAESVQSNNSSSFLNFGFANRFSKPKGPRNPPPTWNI

[23] = biological target: T4, Tyrosine-protein phosphatase non-receptor type 22; type: functional; remark: listed apart in the source
[24] = biological target: T5, Tyrosine-protein phosphatase non-receptor type 7 (Homo sapiens, UniProt P35236); type: functional
T5 sequence (P35236 whole entry): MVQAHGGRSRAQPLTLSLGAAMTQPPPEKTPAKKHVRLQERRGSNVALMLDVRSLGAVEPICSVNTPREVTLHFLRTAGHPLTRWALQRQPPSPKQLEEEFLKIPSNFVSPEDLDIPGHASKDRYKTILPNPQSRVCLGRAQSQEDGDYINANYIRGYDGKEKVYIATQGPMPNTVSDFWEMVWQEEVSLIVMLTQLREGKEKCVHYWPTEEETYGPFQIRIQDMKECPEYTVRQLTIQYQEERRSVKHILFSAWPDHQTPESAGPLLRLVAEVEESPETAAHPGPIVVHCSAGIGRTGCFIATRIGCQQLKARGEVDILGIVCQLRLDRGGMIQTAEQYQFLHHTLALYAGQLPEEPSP

[25] = biological target: Lysine-specific demethylase 4C (Homo sapiens, UniProt Q9H3R0); assay: inhibition of JMJD2C H3K9me3 demethylation – biochemical, DELFIA europium, cherry-picked samples, dose response (AID 488835); type: functional
Phosphomannomutase 2 = Phosphomannomutase 2 (Homo sapiens, UniProt O15305); assay: Counter screen SAR assay for PMM2 inhibitors via a fluorescence intensity assay. [Related pubchem assays (depositor defined):AID1545, AID1574]
[26] = biological target: T6, Mannose-6-phosphate isomerase (Homo sapiens, UniProt P34949); assay: phosphomannose isomerase inhibition – biochemical, fluorescence intensity, confirmation (AID 1535)
T6 sequence (P34949 whole entry): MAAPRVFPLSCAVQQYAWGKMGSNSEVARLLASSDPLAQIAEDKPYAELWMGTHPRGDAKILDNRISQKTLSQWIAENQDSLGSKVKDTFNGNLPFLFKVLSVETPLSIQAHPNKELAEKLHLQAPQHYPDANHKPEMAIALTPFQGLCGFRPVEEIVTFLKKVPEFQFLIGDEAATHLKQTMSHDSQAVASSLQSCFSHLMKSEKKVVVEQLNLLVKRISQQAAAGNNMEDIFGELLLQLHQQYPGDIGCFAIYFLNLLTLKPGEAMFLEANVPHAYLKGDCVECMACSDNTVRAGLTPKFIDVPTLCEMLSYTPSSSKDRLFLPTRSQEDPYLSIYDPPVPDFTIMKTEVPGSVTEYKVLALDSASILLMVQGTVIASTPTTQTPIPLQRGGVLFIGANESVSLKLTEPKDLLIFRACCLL

BJ [27] = assay: growth inhibition of engineered Ras-driven BJ cells – cell-based, alamar blue fluorescence, cherrypicked samples, dose response (AID 2631); type: functional; settings: Homo sapiens;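 also: confirmatory dose-response assay in RAS-dependent BJ fibroblasts engineered with TERT, LT and ST, with cytotoxicity read by fluorescence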
HEK293 [28] = assay: cells; settings: Homo sapiens
[29] = restored growth of temperature-sensitive Burl-1 yeast – whole organism, S. cerevisiae, Burl-1 ts mutant, luminescence, counter-screen for SUMOylation pathway inhibitor project, dose response (AID 463199); type: functional
HEK293 [30] = assay: cells; settings: Homo sapiens; remark: listed apart in the source
Cytochrome P450 2D6 = Cytochrome P450 2D6 (Homo sapiens, UniProt P10635);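 also: CYP2D6 member of a cytochrome P450 panel assay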
Cytochrome P450 3A4 = Cytochrome P450 3A4 (Homo sapiens, UniProt P08684);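 also: CYP3A4 tested as one member of a cytochrome P450 panel screen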
Cytochrome P450 1A2 = biological target: T7, Cytochrome P450 1A2 (Homo sapiens, UniProt P05177);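 also: PubChem cytochrome P450 panel assay, CYP1A2 panel member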
T7 sequence (P05177 whole entry): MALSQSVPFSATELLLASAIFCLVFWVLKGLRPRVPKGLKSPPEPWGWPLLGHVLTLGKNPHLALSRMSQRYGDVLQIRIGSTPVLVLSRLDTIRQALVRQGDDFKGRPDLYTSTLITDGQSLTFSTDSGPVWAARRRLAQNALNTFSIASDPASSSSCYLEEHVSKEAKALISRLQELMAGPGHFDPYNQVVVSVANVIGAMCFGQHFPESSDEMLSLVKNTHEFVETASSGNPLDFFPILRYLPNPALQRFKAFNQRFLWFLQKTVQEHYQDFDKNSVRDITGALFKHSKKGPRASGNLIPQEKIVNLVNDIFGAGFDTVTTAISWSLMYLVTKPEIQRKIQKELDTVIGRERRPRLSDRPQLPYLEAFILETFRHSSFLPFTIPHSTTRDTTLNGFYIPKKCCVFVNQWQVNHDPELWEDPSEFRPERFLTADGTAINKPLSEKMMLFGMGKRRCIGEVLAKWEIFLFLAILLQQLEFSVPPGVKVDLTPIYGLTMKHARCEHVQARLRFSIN

Cytochrome P450 2C9 = Cytochrome P450 2C9 (Homo sapiens, UniProt P11712)
Cytochrome P450 2C19 = Cytochrome P450 2C19 (Homo sapiens, UniProt P33261); assay: Cytochrome panel assay with activity outcomes. Panel member name: p450-cyp2c19 Compounds with AC50 equal or less than 10 uM are considered active; type: functional
Chain of Cytochrome P450 2C19 (P33261 whole entry): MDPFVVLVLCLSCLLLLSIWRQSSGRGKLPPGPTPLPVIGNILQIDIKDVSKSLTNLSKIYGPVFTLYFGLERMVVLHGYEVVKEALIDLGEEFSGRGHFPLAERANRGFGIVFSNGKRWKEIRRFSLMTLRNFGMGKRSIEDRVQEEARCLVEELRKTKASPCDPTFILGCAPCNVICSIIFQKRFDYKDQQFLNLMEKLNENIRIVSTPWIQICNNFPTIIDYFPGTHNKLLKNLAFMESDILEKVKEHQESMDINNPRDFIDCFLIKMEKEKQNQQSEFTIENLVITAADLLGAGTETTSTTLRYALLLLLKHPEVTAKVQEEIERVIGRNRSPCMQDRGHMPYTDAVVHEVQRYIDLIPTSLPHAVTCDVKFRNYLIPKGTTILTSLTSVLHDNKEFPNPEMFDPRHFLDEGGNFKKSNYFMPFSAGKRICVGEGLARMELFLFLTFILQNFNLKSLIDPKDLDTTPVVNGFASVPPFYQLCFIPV

T2 sequence (P41143 whole entry): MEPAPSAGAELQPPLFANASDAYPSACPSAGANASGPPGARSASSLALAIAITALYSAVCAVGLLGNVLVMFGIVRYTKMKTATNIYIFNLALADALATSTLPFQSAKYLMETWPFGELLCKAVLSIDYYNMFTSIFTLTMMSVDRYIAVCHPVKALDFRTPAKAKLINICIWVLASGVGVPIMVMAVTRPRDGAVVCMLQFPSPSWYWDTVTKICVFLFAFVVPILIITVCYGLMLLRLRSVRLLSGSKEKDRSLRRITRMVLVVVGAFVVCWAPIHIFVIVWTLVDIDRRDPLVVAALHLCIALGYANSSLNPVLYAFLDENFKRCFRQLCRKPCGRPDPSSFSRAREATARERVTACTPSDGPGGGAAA
T3 sequence (P41145 whole entry): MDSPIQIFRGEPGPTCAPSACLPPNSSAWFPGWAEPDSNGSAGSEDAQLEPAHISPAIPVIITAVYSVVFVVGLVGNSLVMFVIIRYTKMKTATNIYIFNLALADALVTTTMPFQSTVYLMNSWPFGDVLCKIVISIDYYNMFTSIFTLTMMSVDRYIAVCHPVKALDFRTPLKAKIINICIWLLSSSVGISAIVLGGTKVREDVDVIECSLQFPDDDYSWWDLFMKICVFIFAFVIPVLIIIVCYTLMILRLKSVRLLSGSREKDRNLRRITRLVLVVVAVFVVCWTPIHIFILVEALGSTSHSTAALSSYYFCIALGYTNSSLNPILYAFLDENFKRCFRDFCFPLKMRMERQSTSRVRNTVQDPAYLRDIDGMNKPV
Chain of Mu-type opioid receptor (P35372 whole entry): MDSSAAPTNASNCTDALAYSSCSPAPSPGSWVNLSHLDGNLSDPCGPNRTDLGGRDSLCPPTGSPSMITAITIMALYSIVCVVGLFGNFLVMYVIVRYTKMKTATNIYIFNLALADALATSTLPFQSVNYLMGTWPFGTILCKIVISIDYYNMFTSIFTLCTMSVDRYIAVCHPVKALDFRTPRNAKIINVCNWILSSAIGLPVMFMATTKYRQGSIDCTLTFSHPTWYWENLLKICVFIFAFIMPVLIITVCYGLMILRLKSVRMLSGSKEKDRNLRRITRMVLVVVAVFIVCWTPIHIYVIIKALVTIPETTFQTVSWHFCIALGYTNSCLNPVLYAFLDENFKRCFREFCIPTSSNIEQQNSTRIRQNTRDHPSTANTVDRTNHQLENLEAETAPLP
Chain of Lysine-specific demethylase 4C (Q9H3R0 whole entry): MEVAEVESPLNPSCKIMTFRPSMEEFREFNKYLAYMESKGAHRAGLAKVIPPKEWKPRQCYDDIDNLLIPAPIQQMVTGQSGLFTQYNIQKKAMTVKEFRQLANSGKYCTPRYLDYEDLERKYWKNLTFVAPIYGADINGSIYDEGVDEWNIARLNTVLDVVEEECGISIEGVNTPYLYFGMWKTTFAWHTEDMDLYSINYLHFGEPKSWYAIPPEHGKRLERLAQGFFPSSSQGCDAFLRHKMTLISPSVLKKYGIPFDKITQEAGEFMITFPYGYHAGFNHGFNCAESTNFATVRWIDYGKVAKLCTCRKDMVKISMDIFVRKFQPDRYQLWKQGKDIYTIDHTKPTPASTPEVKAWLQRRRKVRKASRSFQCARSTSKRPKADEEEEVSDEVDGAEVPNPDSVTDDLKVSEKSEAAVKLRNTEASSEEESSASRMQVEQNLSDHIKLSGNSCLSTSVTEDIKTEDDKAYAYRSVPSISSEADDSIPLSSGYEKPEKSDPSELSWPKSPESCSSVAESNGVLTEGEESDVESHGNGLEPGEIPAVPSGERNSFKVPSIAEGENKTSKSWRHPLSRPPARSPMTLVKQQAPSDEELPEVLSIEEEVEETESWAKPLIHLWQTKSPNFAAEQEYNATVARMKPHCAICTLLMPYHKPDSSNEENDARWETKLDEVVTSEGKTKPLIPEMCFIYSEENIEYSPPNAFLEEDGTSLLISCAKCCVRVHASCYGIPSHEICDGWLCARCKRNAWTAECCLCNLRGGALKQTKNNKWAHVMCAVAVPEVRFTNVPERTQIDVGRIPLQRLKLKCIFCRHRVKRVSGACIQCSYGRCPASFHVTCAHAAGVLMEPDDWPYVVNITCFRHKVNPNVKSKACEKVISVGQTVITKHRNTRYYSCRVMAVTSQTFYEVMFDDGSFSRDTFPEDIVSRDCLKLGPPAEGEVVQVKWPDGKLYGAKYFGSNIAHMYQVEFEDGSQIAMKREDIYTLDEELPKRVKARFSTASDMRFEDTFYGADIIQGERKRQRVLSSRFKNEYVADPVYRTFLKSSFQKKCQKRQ
Chain of Intestinal-type alkaline phosphatase (Homo sapiens, UniProt P09923) (P09923 whole entry): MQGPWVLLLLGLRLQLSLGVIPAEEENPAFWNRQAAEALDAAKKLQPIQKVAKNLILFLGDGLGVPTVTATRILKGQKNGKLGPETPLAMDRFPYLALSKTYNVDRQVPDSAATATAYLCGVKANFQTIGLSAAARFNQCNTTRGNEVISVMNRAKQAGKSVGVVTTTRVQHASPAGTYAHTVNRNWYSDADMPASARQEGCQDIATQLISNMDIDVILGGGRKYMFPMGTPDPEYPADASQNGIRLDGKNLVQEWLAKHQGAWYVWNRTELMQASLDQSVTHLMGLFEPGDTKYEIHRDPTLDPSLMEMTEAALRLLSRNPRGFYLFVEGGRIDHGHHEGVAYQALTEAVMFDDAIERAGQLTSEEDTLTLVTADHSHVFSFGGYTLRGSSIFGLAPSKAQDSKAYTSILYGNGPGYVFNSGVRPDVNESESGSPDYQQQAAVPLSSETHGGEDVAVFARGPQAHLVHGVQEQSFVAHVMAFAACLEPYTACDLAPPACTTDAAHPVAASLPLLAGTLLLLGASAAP
Chain of Cytochrome P450 2D6 (P10635 whole entry): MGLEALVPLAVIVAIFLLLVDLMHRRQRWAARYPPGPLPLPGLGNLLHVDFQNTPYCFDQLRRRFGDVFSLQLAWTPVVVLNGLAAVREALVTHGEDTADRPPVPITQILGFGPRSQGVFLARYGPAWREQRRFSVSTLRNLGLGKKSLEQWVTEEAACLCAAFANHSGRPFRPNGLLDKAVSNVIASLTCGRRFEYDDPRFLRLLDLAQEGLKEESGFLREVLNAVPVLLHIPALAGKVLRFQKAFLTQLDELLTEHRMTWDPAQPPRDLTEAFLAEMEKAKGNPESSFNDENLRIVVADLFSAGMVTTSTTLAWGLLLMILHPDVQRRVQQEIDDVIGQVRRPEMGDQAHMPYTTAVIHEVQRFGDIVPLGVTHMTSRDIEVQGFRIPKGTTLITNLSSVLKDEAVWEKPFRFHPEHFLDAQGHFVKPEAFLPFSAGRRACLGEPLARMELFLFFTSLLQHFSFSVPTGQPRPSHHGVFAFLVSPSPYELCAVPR
Chain of Cytochrome P450 3A4 (P08684 whole entry): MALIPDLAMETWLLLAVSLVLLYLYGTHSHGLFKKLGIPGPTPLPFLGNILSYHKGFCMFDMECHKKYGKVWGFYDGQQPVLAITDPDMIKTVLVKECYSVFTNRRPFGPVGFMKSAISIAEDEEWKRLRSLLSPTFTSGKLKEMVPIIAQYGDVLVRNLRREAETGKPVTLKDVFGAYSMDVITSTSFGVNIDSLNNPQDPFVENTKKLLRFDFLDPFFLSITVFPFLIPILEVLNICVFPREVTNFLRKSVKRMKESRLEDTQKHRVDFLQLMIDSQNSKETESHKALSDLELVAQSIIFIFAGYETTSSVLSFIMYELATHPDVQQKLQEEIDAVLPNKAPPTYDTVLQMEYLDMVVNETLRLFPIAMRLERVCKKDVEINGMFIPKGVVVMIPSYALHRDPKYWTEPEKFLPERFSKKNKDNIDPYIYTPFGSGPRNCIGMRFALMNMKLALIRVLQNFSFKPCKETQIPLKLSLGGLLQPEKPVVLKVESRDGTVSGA
Chain of Cytochrome P450 2C9 (P11712 whole entry): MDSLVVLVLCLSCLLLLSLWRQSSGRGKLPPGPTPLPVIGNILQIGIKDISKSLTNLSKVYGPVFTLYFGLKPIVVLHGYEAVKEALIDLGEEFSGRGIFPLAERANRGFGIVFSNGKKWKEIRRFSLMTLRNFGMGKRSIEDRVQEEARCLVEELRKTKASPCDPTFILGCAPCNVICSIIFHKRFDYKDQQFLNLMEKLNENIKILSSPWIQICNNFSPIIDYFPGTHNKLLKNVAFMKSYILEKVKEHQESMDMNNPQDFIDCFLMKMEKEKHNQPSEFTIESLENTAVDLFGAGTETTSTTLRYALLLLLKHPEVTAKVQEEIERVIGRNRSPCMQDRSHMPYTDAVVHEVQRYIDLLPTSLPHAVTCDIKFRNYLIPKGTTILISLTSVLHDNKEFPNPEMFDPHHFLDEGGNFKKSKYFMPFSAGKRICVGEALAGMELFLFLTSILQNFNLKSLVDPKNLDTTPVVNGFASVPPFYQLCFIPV
Chain of Phosphomannomutase 2 (O15305 whole entry): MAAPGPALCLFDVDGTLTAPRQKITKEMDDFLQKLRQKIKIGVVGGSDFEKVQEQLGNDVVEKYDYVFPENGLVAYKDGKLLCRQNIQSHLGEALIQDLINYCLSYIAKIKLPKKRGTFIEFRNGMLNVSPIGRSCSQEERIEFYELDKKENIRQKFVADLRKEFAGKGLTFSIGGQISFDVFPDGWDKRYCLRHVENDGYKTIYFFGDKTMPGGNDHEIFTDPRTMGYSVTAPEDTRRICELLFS

O=C(CCN1C(=O)/C(=C/c2ccco2)SC1=S)Nc1ccc(O)cc1C(=O)O
IC50 [1]: > 100 µM (inactive) | IC50 [2]: 1.51 µM (active) | IC50 [3]: 19.6 µM (active)

COc1cc2ccccc2cc1C(=O)Nc1sc2c(c1C(N)=O)CCN(C(C)C)C2
AC50 [4]: 16 µM (active) | EC50 [5]: > 120 µM (not active) | IC50 [6]: > 100 µM (inactive) | IC50 [7]: 18.1 µM (active) | EC50 (BJ [8]): 13.6 µM (active) | IC50 [9]: > 32 µM (inactive) | EC50 [10]: > 120 µM (not active) | EC50 [11]: > 120 µM (not active) | IC50 (cells): 11.9 µM (active) | CC50 [12]: 11.6 µM (active) | EC50 [13]: 7.16 µM (active) | AC50 [14]: 9.33 µM (active) | EC50 [15]: 14.8 µM | IC50 (Prothrombin): 15.1 µM (active) | EC50 (BJ [16]): 6.85 µM (inconclusive) | EC50 (Mu-type opioid receptor): > 32 µM (inactive) | AC50 (INS1): 7.78 µM (active) | EC50 [17]: 2 µM | EC50 (BJ [18]): 6.33 µM (active) | EC50 [19]: > 32 µM (inactive) | CC50 [20]: 10.8 µM (active) | CC50 [21]: 4.6 µM (active)

Cc1cccnc1-n1c(C)nc2ccccc2c1=O
IC50 [22]: > 79.4 µM (inactive) | IC50 [23]: > 79.4 µM (inactive) | IC50 [24]: > 79.4 µM (inactive)

CCOC(=O)C1=CC(=C2C(=O)N(CC)C(=S)N(CC)C2=O)c2ccccc2O1
AC50 [25]: 12.2 µM (active)

Cc1ccc(/N=c2\ssnc2Cl)c([N+](=O)[O-])c1
IC50 (Phosphomannomutase 2): 96.2 µM (active) | IC50 [26]: 4.44 µM (active)

CC(C)c1cc(C(=O)N/N=C/C(Br)=C/c2ccccc2)[nH]n1
EC50 (BJ [27]): 22.2 µM (active) | EC50 (BJ [8]): 4.12 µM (active) | EC50 [13]: 5.12 µM (active) | EC50 (BJ [16]): > 150 µM (inconclusive) | EC50 (BJ [18]): 29.6 µM (active) | EC50 (HEK293 [28]): > 59.7 µM (inactive) | AC50 [29]: 137 µM (active) | EC50 (HEK293 [30]): > 59.7 µM (inactive)

O=C(O)c1cc2ccccc2c(Cc2c(O)c(C(=O)O)cc3ccccc23)c1O [PAMOIC ACID]
AC50 (Cytochrome P450 2D6): inactive | AC50 (Cytochrome P450 3A4): inactive | AC50 (Cytochrome P450 1A2): inactive | AC50 (Cytochrome P450 2C9): inactive | AC50 (Cytochrome P450 2C19): inactive
